One series addresses Galectin-1 (Homo sapiens, UniProt P09382). Briefly: Fluorescence anisotropy assay, inhibition of galectin / fluorescein tagged saccharide probe interaction. The series is classed as binding. How it is done:
(§1) The affinity of Example 1-28 for galectins were determined by a fluorescence anisotropy assay where the compound was used as an inhibitor of the interaction between galectin and a fluorescein tagged saccharide probe as described Sörme, P., Kahl-Knutsson, B., Huflejt, M., Nilsson, U. J., and Leffler H. (2004) Fluorescence polarization as an analytical tool to evaluate galectin-ligand interactions. Anal. Biochem. 334: 36-47, (Sörme et al., 2004) and Monovalent interactions of Galectin-1 By Salomonsson, Emma; Larumbe, Amaia; Tejler, Johan; Tullberg, Erik; Rydberg, Hanna; Sundin, Anders; Khabut, Areej; Frejd, Torbjorn; Lobsanov, Yuri D.; Rini, James M.; et al, From Biochemistry (2010), 49(44), 9518-9532, (Salomonsson et al., 2010).
(Polarisation of emitted light reports the rotation of a fluorescent probe.)

Another series deals with Galectin-3 (Homo sapiens, UniProt P17931). Described as above. The series is classed as binding. On the procedure: as §1
A further series addresses galectins. The following applies: cited from earlier work.
The nature of another series: Aqueous solubility. The series is classed as physicochemical.

In brackets after ≈: the same amount, converted by molar mass. A value given as a limit tells only on which side of the number the result lay.

Chain of Galectin-1 (P09382 whole entry): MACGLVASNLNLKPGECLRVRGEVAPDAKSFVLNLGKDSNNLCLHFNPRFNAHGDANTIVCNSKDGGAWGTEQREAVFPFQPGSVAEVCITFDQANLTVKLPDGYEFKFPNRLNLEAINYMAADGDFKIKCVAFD
Chain of Galectin-3 (P17931 whole entry): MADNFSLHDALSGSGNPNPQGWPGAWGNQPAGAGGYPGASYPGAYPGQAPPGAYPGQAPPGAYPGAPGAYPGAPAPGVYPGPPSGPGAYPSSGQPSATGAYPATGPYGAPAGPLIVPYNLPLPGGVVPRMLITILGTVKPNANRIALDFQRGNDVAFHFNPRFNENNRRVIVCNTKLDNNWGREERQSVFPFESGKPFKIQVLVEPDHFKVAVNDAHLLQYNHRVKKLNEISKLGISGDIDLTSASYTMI

The Kd is a measure of binding affinity in units of concentration. Consider `CN(C)C(=O)c1ccc(Cl)cc1S[C@H]1OC(CO)[C@H](O)C(n2cc(-c3cc(F)c(F)c(F)c3)nn2)C1OCc1cscn1` (stereo partly drawn) [Example 24, 4-Chloro-N,N-dimethyl-benzamide-2-yl 3-deoxy-3-[4-(3,4,5-trifluorophenyl)-1H-1,2,3-triazol-1-yl]-2-O-[(thiazol-4-yl)methyl]-1-thio-α-D-galactopyranoside], for which the Kd was 3.7 µM on Galectin-1 and 0.014 µM at Galectin-3.

Consider `O=S(=O)(O)O[C@@H]1[C@@H](n2cc(-c3cc(F)c(F)c(F)c3)nn2)[C@@H](O)[C@@H](CO)O[C@@H]1Sc1cncc(Br)c1` [Example 4, 5-Bromopyridin-3-yl 3-deoxy-3-[4-(3,4,5-trifluorophenyl)-1H-1,2,3-triazol-1-yl]-2-O-sulfo-1-thio-α-D-galactopyranside], for which the Kd on Galectin-1 was 3.15 µM; at Galectin-3 it was 0.003 µM.

In the case of `OC[C@H]1O[C@@H](O[C@H]2[C@H](O)[C@@H](O)C(O)O[C@@H]2CO)[C@H](O)[C@@H](O)[C@H]1O` (stereo partly shown) [lactose], on galectins (all galectins), the Kd was 500 to 1000 µM.

The solubility is how much of the substance goes into solution per volume. Turning to `CS(=O)(=O)NC(=O)COC1C(n2cc(-c3cc(F)c(Cl)c(F)c3)nn2)[C@@H](O)C(CO)O[C@@H]1Sc1ccc(Cl)c(Cl)c1` (stereo in doubt) [Example 9, 3,4-Dichlorphenyl 3-[4-(4-chloro-3,5-difluorophenyl)-1H-1,2,3-triazol-1-yl]-3-deoxy-2-O-[2-(methylsulfonamido)-2-oxoethyl]-1-thio-α-D-galactopyranoside], the solubility in the series “Aqueous solubility” is 2900 µg/mL (≈ 4.3 mM). Moreover, the values for the Kd at Galectin-1 and on Galectin-3 were 3 µM and 0.023 µM, respectively.

As for `OCC1O[C@H](Sc2ccc(Cl)c(Cl)c2)C(OCc2nnn[nH]2)C(n2cc(-c3cc(F)c(F)c(F)c3)nn2)[C@H]1O` (stereo in doubt) [Example 14, 3,4-Dichlorphenyl 3-deoxy-3-[4-(3,4,5-trifluorophenyl)-1H-1,2,3-triazol-1-yl]-2-O-[(1H-tetrazol-5-yl)methyl]-1-thio-α-D-galactopyranoside], the Kd is 1.8 µM at Galectin-1 and 0.008 µM on Galectin-3.

For the compound `CN(C)C(=O)c1ccc(Cl)cc1S[C@H]1OC(CO)[C@H](O)C(n2cc(-c3cc(F)c(F)c(F)c3)nn2)C1OCc1nnn[nH]1` (stereo partly drawn) [Example 25, 4-Chloro-N,N-dimethyl-benzamide-2-yl 3-deoxy-3-[4-(3,4,5-trifluorophenyl)-1H-1,2,3-triazol-1-yl]-2-O-[(1H-tetrazol-5-yl)methyl]-1-thio-α-D-galactopyranoside], the Kd on Galectin-1 was 1.2 µM; at Galectin-3, 0.004 µM.

As to `OC[C@H]1O[C@H](Sc2cncc(Br)c2)[C@H](OCc2ncc[nH]2)[C@@H](n2cc(-c3cc(F)c(F)c(F)c3)nn2)[C@H]1O` [Example 15, 5-Bromopyridin-3-yl 3-deoxy-3-[4-(3,4,5-trifluorophenyl)-1H-1,2,3-triazol-1-yl]-2-O-[(1H-imidazol-2-yl)methyl]-1-thio-α-D-galactopyranoside], the Kd on Galectin-1 is 9.5 µM; on Galectin-3 it was 0.007 µM.

Turning to `O=P(O)(O)OCO[C@@H]1[C@@H](n2cc(-c3cc(F)c(F)c(F)c3)nn2)[C@@H](O)[C@@H](CO)O[C@@H]1Sc1cncc(Br)c1` [Example 5, 5-Bromopyridin-3-yl 3-deoxy-3-[4-(3,4,5-trifluorophenyl)-1H-1,2,3-triazol-1-yl]-2-O-[(phosphonooxy)methyl]-1-thio-α-D-galactopyranoside], the solubility in “Aqueous solubility” is > 10000 µg/mL. Also, the results for the Kd at Galectin-1 and on Galectin-3 were 3.83 µM and 0.012 µM, respectively.

`OC[C@H]1O[C@H](Sc2cncc(Br)c2)[C@H](OCc2cscn2)[C@@H](n2cc(-c3cc(F)c(F)c(F)c3)nn2)[C@H]1O` [Example 21, 5-Bromopyridin-3-yl 3-deoxy-3-[4-(3,4,5-trifluorophenyl)-1H-1,2,3-triazol-1-yl]-2-O-[(thiazol-4-yl)methyl]-1-thio-α-D-galactopyranoside]: the equilibrium dissociation constant (Kd) at Galectin-1 was determined as 8.6 µM; at Galectin-3 it was 0.018 µM.

As to `O=C(O)CO[C@@H]1[C@@H](n2cc(-c3cc(F)c(F)c(F)c3)nn2)[C@@H](O)[C@@H](CO)O[C@@H]1Sc1cncc(Br)c1` [Example 8, 5-Bromopyridin-3-yl 2-O-carboxymethyl-3-deoxy-3-[4-(3,4,5-trifluorophenyl)-1H-1,2,3-triazol-1-yl]-1-thio-α-D-galactopyranoside], in the series “Aqueous solubility”, the concentration in solution (solubility) came to 1800 µg/mL (≈ 3.04 mM). Further, the Kd was determined as 1.8 µM on Galectin-1 and 0.007 µM on Galectin-3.

Consider `OCC1O[C@H](Sc2ccc(Cl)c(Cl)c2)C(OCc2cocn2)C(n2cc(-c3cc(F)c(Cl)c(F)c3)nn2)[C@H]1O` (stereo partly drawn) [Example 20, 3,4-Dichlorphenyl 3-[4-(4-chloro-3,5-difluorophenyl)-1H-1,2,3-triazol-1-yl]-3-deoxy-2-O-[(oxazol-4-yl)methyl]-1-thio-α-D-galactopyranoside], for which the Kd stood at 29.7 µM at Galectin-1 and 0.087 µM at Galectin-3.

As for `OC[C@H]1O[C@H](Sc2cncc(Br)c2)[C@H](OCc2nnn[nH]2)[C@@H](n2cc(-c3cc(F)c(F)c(F)c3)nn2)[C@H]1O` [Example 12, 5-Bromopyridin-3-yl 3-deoxy-3-[4-(3,4,5-trifluorophenyl)-1H-1,2,3-triazol-1-yl]-2-O-[(1H-tetrazol-5-yl)methyl]-1-thio-α-D-galactopyranoside], the Kd was found to be 2.4 µM at Galectin-1 and 0.016 µM on Galectin-3.

As to `OC[C@H]1O[C@H](Sc2cncc(Br)c2)[C@H](OCc2nccs2)[C@@H](n2cc(-c3cc(F)c(F)c(F)c3)nn2)[C@H]1O` [Example 23, 5-Bromopyridin-3-yl 3-deoxy-3-[4-(3,4,5-trifluorophenyl)-1H-1,2,3-triazol-1-yl]-2-O-[(thiazol-2-yl)methyl]-1-thio-α-D-galactopyranoside], the Kd at Galectin-1 stood at 2.6 µM; on Galectin-3, 0.041 µM.

With `CC(OC1C(n2cc(-c3cc(F)c(F)c(F)c3)nn2)[C@@H](O)C(CO)O[C@@H]1Sc1cncc(Br)c1)C(=O)O` (single isomer, unassigned; diastereomer 1) [Example 27], the Kd at Galectin-1 was 6.5 µM; on Galectin-3, 0.015 µM.

As to `O=C(O)CO[C@@H]1[C@@H](n2cc(-c3cc(F)c(Cl)c(F)c3)nn2)[C@@H](O)[C@@H](CO)O[C@@H]1Sc1ccc(Cl)c(Cl)c1` [Example 7, 3,4-Dichlorphenyl 2-O-carboxymethyl-3-[4-(4-chloro-3,5-difluorophenyl)-1H-1,2,3-triazol-1-yl]-3-deoxy-1-thio-α-D-galactopyranoside], the solubility in the series “Aqueous solubility” worked out at 2000 µg/mL (≈ 3.35 mM). In addition, the values for the Kd on Galectin-1 and on Galectin-3 were 2 µM and 0.0085 µM, respectively.

`OC[C@H]1O[C@H](Sc2cncc(Br)c2)[C@H](OCc2ncco2)[C@@H](n2cc(-c3cc(F)c(F)c(F)c3)nn2)[C@H]1O` [Example 17, 5-Bromopyridin-3-yl 3-deoxy-3-[4-(3,4,5-trifluorophenyl)-1H-1,2,3-triazol-1-yl]-2-O-[(oxazol-2-yl)methyl]-1-thio-α-D-galactopyranoside]: the Kd at Galectin-1 amounted to 2.8 µM; at Galectin-3, 0.024 µM.

As for `OC[C@H]1O[C@H](Sc2cncc(Br)c2)[C@H](OCc2cnco2)[C@@H](n2cc(-c3cc(F)c(F)c(F)c3)nn2)[C@H]1O` [Example 18, 5-Bromopyridin-3-yl 3-deoxy-3-[4-(3,4,5-trifluorophenyl)-1H-1,2,3-triazol-1-yl]-2-O-[(oxazol-5-yl)methyl]-1-thio-α-D-galactopyranoside], the values for the Kd at Galectin-1 and on Galectin-3 were 14.8 µM and 0.13 µM, respectively.

For `O=C[C@H](O)[C@@H](O)[C@@H](O)[C@H](O)CO` [D-galactose], in the series on galectins (relative to lactose), the “affinity, times lower than lactose” value was 50-100 times.

Consider `OC[C@H]1O[C@H](Sc2cncc(Br)c2)[C@H](OCc2cncs2)[C@@H](n2cc(-c3cc(F)c(F)c(F)c3)nn2)[C@H]1O` [Example 22, 5-Bromopyridin-3-yl 3-deoxy-3-[4-(3,4,5-trifluorophenyl)-1H-1,2,3-triazol-1-yl]-2-O-[(thiazol-5-yl)methyl]-1-thio-α-D-galactopyranoside], for which the Kd came to 1.9 µM at Galectin-1 and 0.021 µM on Galectin-3.

The values are drawn from patent publication US12497428B2, “Galactoside inhibitor of galectins” (GALECTO BIOTECH AB, priority 2018, dated 2025).
